≈ marks a conversion by molar mass, not a printed value. Entries after “also recorded” stand apart in the source; their conditions may differ. Like-named read-outs stand apart in the source and are kept apart here.

Assay type in all cases: cell-based
Assay [1] concerns Serratia marcescens. Put plainly: MIC Agar Dilution Test, Serratia marcescens. An excerpt:
(§1) The following strains of microorganisms were used in Minimum Inhibitory Concentration (MIC) tests for phenyl 2-acetoxyethanoic acid in this example and for benzoyl peroxide, chlorhexidine gluconate and triclosan in the following examples. In total, five strains were used for S. aureus, five strains were used for S. epidermidis, two strains were used for M. sedentarius, three strains were used for M. luteus, two strains were used for B. epidermis, three strains were used for C. minutissium, one strain was used for S. marcescens, three strains were used for P. aeruginosa, four strains were used for E. coli, and thirty-two strains were used for P. acnes.
(§2) Antimicrobial effects were determined based on MIC Agar Dilution Test utilizing Trypticase Soy Agar II (BBL) incorporation plates with and without 10% intralipid (Kabi Pharmacia Inc.). Initially, phenyl 2-acetoxyethanoic acid was prepared as a 2 mg/ml (0.2%) solution in water. This solution with serial dilution was incorporated into the test agar plates. The MIC test gave similar results when the same species but a different strain was used.
(§3) Under the same test conditions described in Example 1, benzoyl peroxide was prepared as a 2.5 mg/ml (0.25%) solution in water. This solution with serial dilution was incorporated into the test agar plates. Typical test results are shown as follows.
(§4) Under the same test conditions described in Example 1, chlorhexidine gluconate was prepared as a 2 mg/ml (0.2%) solution in water. This solution with serial dilution was incorporated into the test agar plates. Typical test results are shown as follows.
(§5) Under the same test conditions described in Example 1, triclosan was prepared as a 10 mg/ml (1%) solution in water. This solution with serial dilution was incorporated into the test agar plates. Typical test results are shown as follows.
(§6) Ten different species of bacteria were used in Minimum Inhibitory Concentration (MIC) tests. The bacteria include S. aureus, S. epidermidis,M. sedentarius, M. luteus, B. epidermis, C. minutissium, S. marcescens, P. aeruginosa, E. coli, and P. acnes. In addition various sources and strains of these bacteria were also included in the tests, and up to 32 different strains of P. acnes were used.
(§7) The test substance selected from phenyl 2-acetoxyethanoic acid, benzoyl peroxide, chlorhexidine gluconate and triclosan was dissolved in water, and the solution with serial dilution was incorporated into the test agar plates. The plates containing different concentrations of test substance were inoculated with a strain of bacterium. MIC is defined as the lowest concentration of the test substance in the plate in which there is no growth of the microorganism.

Assay [2] has as its system Escherichia coli. Put plainly: MIC Agar Dilution Test, Escherichia coli.
Excerpt: as §1, §2, §3, §4, §5, §6, §7

The subject of assay [3] is Corynebacterium minutissium. Put plainly: MIC Agar Dilution Test, Corynebacterium minutissium.
Excerpt: as §1, §2, §3, §4, §5, §6, §7
Background: In agar dilution the substance is mixed into plates at graded concentrations.

The subject of assay [4] is ten different species of bacteria. The experiment in a line: MIC Agar Dilution Test, panel of ten bacteria.
Excerpt: as §1, §2, §3, §4, §5
In order to determine the antimicrobial effect of an aryl 2-acetoxyethanoicacid, a standard test method of Minimum Inhibitory Concentration (MIC) against the growth of 10 bacteria was used. To determine a prophylactic effect against the development of, as well as a topical effect in the treatment of, body foul door, eleven human subjects participated in this study. More than twenty human subjects participated in a study to determine whether the compositions containing an aryl 2-acetoxyethanoic acid were therapeutically effective for topical treatment of folliculitis and other skin lesions, nail infections and mucosal infections caused by microbial infections. Scientific and test results are overviewed as follows.
as §6, §7

The subject of assay [5] is Staphylococcus aureus. Put plainly: MIC Agar Dilution Test, Staphylococcus aureus.
Excerpt: as §1, §2, §3, §4, §5, §6, §7

In assay [6] the test system is Micrococcus luteus. Put plainly: MIC Agar Dilution Test, Micrococcus luteus.
Excerpt: as §1, §2, §3, §4, §5, §6, §7

Assay [7] concerns Brevibacterium epidermis. The experiment in a line: MIC Agar Dilution Test, Brevibacterium epidermis.
Excerpt: as §1, §2, §3, §4, §5, §6, §7

Assay [8] concerns Staphylococcus epidermidis. The experiment in a line: MIC Agar Dilution Test, Staphylococcus epidermidis.
Excerpt: as §1, §2, §3, §4, §5, §6, §7

Assay [9] deals with Micrococcus sedentarius. The experiment in a line: MIC Agar Dilution Test, Micrococcus sedentarius. The settings on record: Kytococcus sedentarius.
Excerpt: as §1, §2, §3, §4, §5, §6, §7

Assay [10] concerns Pseudomonas aeruginosa. Put plainly: MIC Agar Dilution Test, Pseudomonas aeruginosa.
Excerpt: as §1, §2, §3, §4, §5, §6, §7

Assay [11] relates to Propionibacterium acnes. The experiment in a line: MIC Agar Dilution Test, Propionibacterium acnes. The note with it: Cutibacterium acnes.
Excerpt: as §1, §2, §3, §4, §5, §6, §7

[12] abbreviates: in the absence of lipid materials, triclosan: excluding S. marcescens and P. aeruginosa.
[13] abbreviates: in the presence of 10% lipid materials, benzoyl peroxide: excluding S. marcescens and P. aeruginosa.
Setting [14] is: S. marcescens, 10% intralipid, read-out: MIC Lipid.
The mark [15] stands for this setting: S. marcescens, no lipid, read-out: MIC No Lipid.
[16] abbreviates: E. coli, 10% intralipid, read-out: MIC Lipid.
The mark [17] stands for this setting: E. coli, no lipid, read-out: MIC No Lipid.
Setting [18] is: C. minutissium, 10% intralipid, read-out: MIC Lipid.
Where [19] appears, read: C. minutissium, no lipid, read-out: MIC No Lipid.
Where [20] appears, read: S. aureus, 10% intralipid, read-out: MIC Lipid.
The mark [21] stands for this setting: S. aureus, no lipid, read-out: MIC No Lipid.
[22] abbreviates: M. luteus, 10% intralipid, read-out: MIC Lipid.
Setting [23] is: M. luteus, no lipid, read-out: MIC No Lipid.
The mark [24] stands for this setting: B. epidermis, 10% intralipid, read-out: MIC Lipid.
Where [25] appears, read: B. epidermis, no lipid, read-out: MIC No Lipid.
The mark [26] stands for this setting: S. epidermidis, 10% intralipid, read-out: MIC Lipid.
Where [27] appears, read: S. epidermidis, no lipid, read-out: MIC No Lipid.
Where [28] appears, read: M. sedentarius, 10% intralipid, read-out: MIC Lipid.
Setting [29] is: M. sedentarius, no lipid, read-out: MIC No Lipid.
The mark [30] stands for this setting: P. aeruginosa, 10% intralipid, read-out: MIC Lipid.
Setting [31] is: P. aeruginosa, no lipid, read-out: MIC No Lipid.
[32] abbreviates: P. acnes, 10% intralipid, read-out: MIC Lipid.
Where [33] appears, read: P. acnes, no lipid, read-out: MIC No Lipid.

In the case of `Oc1cc(Cl)ccc1Oc1ccc(Cl)cc1Cl` [triclosan], the MIC in assay [1] (read-out: MIC Lipid) is > 10000 µg/mL; in assay [1] (read-out: MIC No Lipid), > 10000 µg/mL; in assay [2] (read-out: MIC Lipid), > 10000 µg/mL; in [2] (read-out: MIC No Lipid), 156 µg/mL (≈ 0.539 mM); in assay [3] (read-out: MIC Lipid), > 10000 µg/mL; in assay [3] (read-out: MIC No Lipid) it was 156 µg/mL (≈ 0.539 mM). In addition, the MIC was 156 µg/mL (≈ 0.539 mM) in [4] (read-out: concentration found effective against the bacteria tested); > 10000 µg/mL in assay [5] (read-out: MIC Lipid); 156 µg/mL (≈ 0.539 mM) in assay [5] (read-out: MIC No Lipid); > 10000 µg/mL in [6] (read-out: MIC Lipid); 156 µg/mL (≈ 0.539 mM) in assay [6] (read-out: MIC No Lipid); > 10000 µg/mL in [7] (read-out: MIC Lipid). The MIC is 156 µg/mL (≈ 0.539 mM) in assay [7] (read-out: MIC No Lipid); 5000 µg/mL (≈ 17.3 mM) in assay [8] (read-out: MIC Lipid); 156 µg/mL (≈ 0.539 mM) in assay [8] (read-out: MIC No Lipid); > 10000 µg/mL in assay [9] (read-out: MIC Lipid); 156 µg/mL (≈ 0.539 mM) in [9] (read-out: MIC No Lipid); > 10000 µg/mL in assay [10] (read-out: MIC Lipid). Moreover, the values for the MIC in assay [10] (read-out: MIC No Lipid), in [11] (read-out: MIC Lipid) and in assay [11] (read-out: MIC No Lipid) were > 10000 µg/mL, > 10000 µg/mL and 156 µg/mL (≈ 0.539 mM), respectively. Moreover, the “effect against the growth of the bacteria” value (shortened to “effect against the growth”) in [4] (setting [12]) is recorded as “effective against various bacteria”; in assay [4] (setting [13]) it was “ineffective; also recorded: not effective against the growth of all the bacteria tested; also recorded: ineffective against most microorganisms”.
Turning to `N=C(NCCCCCCNC(=N)NC(=N)Nc1ccc(Cl)cc1)NC(=N)Nc1ccc(Cl)cc1` [chlorhexidine gluconate], the MIC in [1] (setting [14]) was > 2000 µg/mL; in assay [1] (setting [15]) it was 1000 µg/mL; in [2] (setting [16]) it was > 2000 µg/mL; in assay [2] (setting [17]), 250 µg/mL; in [3] (setting [18]) it was > 2000 µg/mL; in assay [3] (setting [19]), 125 µg/mL. Further, the MIC was > 2000 µg/mL in assay [5] (setting [20]); 125 µg/mL in [5] (setting [21]); > 2000 µg/mL in assay [6] (setting [22]); 125 µg/mL in assay [6] (setting [23]); > 2000 µg/mL in assay [7] (setting [24]); 250 µg/mL in assay [7] (setting [25]). Besides, the MIC in assay [8] (setting [26]) is > 2000 µg/mL; in [8] (setting [27]) it was 125 µg/mL; in assay [9] (setting [28]), > 2000 µg/mL; in assay [9] (setting [29]) it was 125 µg/mL; in assay [10] (setting [30]), > 2000 µg/mL; in [10] (setting [31]), 1000 µg/mL. For the same compound, the values for the MIC in [11] (setting [32]) and in assay [11] (setting [33]) were > 2000 µg/mL and 62.5 µg/mL, respectively. For the same compound, the “effect against the growth” value was “effective against various bacteria” in assay [4] (setting [12]) and “totally ineffective; also recorded: not effective against the growth of all the bacteria tested; also recorded: ineffective against most microorganisms” in [4] (setting [13]).
On to `O=C(OOC(=O)c1ccccc1)c1ccccc1` [benzoyl peroxide], for which the MIC in assay [1] (setting [14]) is 1250 µg/mL (≈ 5.16 mM); in [1] (setting [15]), 72500 µg/mL (≈ 299 mM); in assay [2] (setting [16]), 1250 µg/mL (≈ 5.16 mM); in assay [2] (setting [17]) it was 2500 µg/mL (≈ 10.3 mM); in assay [3] (setting [18]) it was 1250 µg/mL (≈ 5.16 mM); in assay [3] (setting [19]) it was 2500 µg/mL (≈ 10.3 mM). Besides, the MIC in assay [5] (setting [20]) stood at 1250 µg/mL (≈ 5.16 mM); in assay [5] (setting [21]), 2500 µg/mL (≈ 10.3 mM); in [6] (setting [22]) it was 650 µg/mL (≈ 2.68 mM); in assay [6] (setting [23]), 2500 µg/mL (≈ 10.3 mM); in assay [6] (in the presence of 10% lipid materials (printed M. lutens), read-out: concentration showing inhibitory effects against M. luteus), 625 µg/mL; in [7] (setting [24]), 1250 µg/mL (≈ 5.16 mM). The MIC in assay [7] (setting [25]) worked out at 2500 µg/mL (≈ 10.3 mM); in assay [8] (setting [26]), 1250 µg/mL (≈ 5.16 mM); in assay [8] (setting [27]), 2500 µg/mL (≈ 10.3 mM); in assay [9] (setting [28]), 650 µg/mL (≈ 2.68 mM); in assay [9] (setting [29]), 2500 µg/mL (≈ 10.3 mM); in assay [9] (in the presence of 10% lipid materials, read-out: concentration showing inhibitory effects against M. sedentarius), 625 µg/mL. For the same compound, the MIC worked out at 1250 µg/mL (≈ 5.16 mM) in assay [10] (setting [30]); 72500 µg/mL (≈ 299 mM) in assay [10] (setting [31]); 625 µg/mL (≈ 2.58 mM) in assay [11] (setting [32]); 2500 µg/mL (≈ 10.3 mM) in assay [11] (setting [33]); 625 µg/mL in assay [11] (in the presence of 10% lipid materials, read-out: concentration effective against P. acnes). In addition, the “effect against the growth” value was “not effective against the growth of all the bacteria tested” in [4] (setting [12]) and “moderately effective” in [4] (setting [13]).

The values are drawn from patent US6046238A, “Method for treating or preventing the spread of acne vulgaris” (TriStrata, Inc., priority 1999, dated 2000).
